The values below come from patent publication EP4553083A1, “PEPTIDES AND THEIR USE FOR THE TREATMENT AND/OR PREVENTION OF MULTIPLE SCLEROSIS” (Cellerys AG, priority 2023, dated 2025).

Data set [1] can be described thus: Peptide solubility test in saline (visual: cloudy = insoluble, clear = soluble). Conditions: visual assessment.
Method: MBP, MOG and PLP peptides were also tested.
Peptides were added to saline at different concentrations and it was visually assessed whether the resulting sample was cloudy (peptide insoluble) or clear (peptide soluble).
A further data set has as its system TCC14. The data set can be described thus: Antigen specificity of TCC14 (co-cultivation with monocytes and peptide-coupled RBCs, fluorospot). Format: cell-based, human. Conditions: irrelevant peptide; 48 hours; Figure 15. Here is the method: In order to evaluate whether the IL-10 and IFN-γ secretion upon co-culturing TCC14 with active monocytes and peptide-coupled RBCs is antigen-specific, biotinylated SIN3A* peptide ([…]) (SEQ ID NO: 38) was coupled to RBCs and co-cultured with TCC14 and active monocytes. […] Therefore, it was tested if the SIN3A*-coupled RBCs have any effect on TCC14. Soluble SIN3A* peptide (QPVEFNHAIHYVN) (SEQ ID NO: 39) was used for stimulation.
Monocytes were magnetically isolated from PBMCs of a DR15 donor and seeded at 50×10^3 in each well. 25 ×10^3 of the TCC14 was seeded in each well (final volume 200 µl). Coupling to RBCs was performed with 1.58 mg/ml (0.132 mg/ml × 12) of the respective peptide. 200×10^3 RBCs were added to each well.
IFN-α was directly added into the wells at the time of seeding the cells at 10000 U/ml. In the samples with soluble peptides, 10 µM of the peptides was added to the wells. Plates were incubated for 48 hours and stained for IFN-γ, IL-10 and IL-17 according to the manufacturer's instructions (see fluorospot assay supra).

Data set [2] deals with RASGRP2 78-87-specific T cell clones (TCCs). The data set can be described thus: T cell reactivity in RASGRP2 (78-87) specific T cell clones (3H-thymidine assay). Conditions: 72 hours; four DRB1*15:01-restricted clones; presented by BLS DR2b cells; Figure 6. Format: cell-based, human. Here is the method: Four RASGRP2 78-87-specific T cell clones (TCCs) (cf. Wang et al., 2020, Cell, 183(5):1264-1281) were tested by 3H-thymidine incorporation (72 hours) for their responses against the biotinylated RASGRP2 (74-91) (SEQ ID NO: 2) peptide "bioRASGRP2 74-91" and a positive control, i.e. stimulation with anti-CD2/3/28-coupled beads. Each of the clones is DRB1*15:01-restricted.
Proliferation was measured 72 h after stimulation by 3H-thymidine (Hartmann Analytic, Braunschweig, Germany) incorporation in a scintillation counter (Wallac 1450, PerkinElmer, Rodgau-Jürgesheim, Germany). Depicted is the fold change over unstimulated control. Each dot represents the mean of 3 repeat wells for each clone. Peptides were presented in the assay by BLS cells transfected with DRA*01:01 and DRB1*15:01 (the heterodimer is referred to as BLS DR2b).

Ends that are not written are not given here.

“FRFTPFKQAVKETCA [TSTA3-4 (296-310), FRFTPFKQAVKETCA]”: the solubility in saline entry in data set [1] (at a concentration of 10 mg/ml) was “soluble in saline”. The same measure, in the same setting: under “KTCHLVRYWISAFPAEFD [RASGRP2 (74-91), KTCHLVRYWISAFPAEFD]” stands “soluble in saline”. In the case of “LSVGEEDEVS [TSTA3-3 (242-251), LSVGEEDEVS]”, the solubility in saline entry in data set [1] (at a concentration of 10 mg/ml) is listed as “soluble in saline”. On to LVRYWISAFP [RASGRP2 78-87, LVRYWISAFP], for which the solubility in saline result in data set [1] (concentration not given) is “not soluble in saline”. Still for that read-out and setting: under “LVRYWISAFPAEFDL [RASGRP2 78-92, LVRYWISAFPAEFDL]” stands “insoluble in saline”.

Consider “LVRYWISAFPAEFDLNPE [RASGRP2 78-95, LVRYWISAFPAEFDLNPE]”, for which the solubility in saline entry in data set [1] (concentration not given) is on record as “insoluble in saline”.

In the case of “PHNSNFGYSYAKRMI [TSTA3-2 (136-150), PHNSNFGYSYAKRMI]”, in data set [1] (at a concentration of 10 mg/ml), the solubility in saline result is reported as “soluble in saline”. As for “QPVEFNHAIHYVN [SIN3A*, irrelevant peptide, a tumor-specific antigen not recognized by TCC14]”, the “effect on the T cell clone (IL-10 and IFN-γ secretion)” value with TCC14 is “neither stimulatory nor inhibitory”. Consider “SLQVKTCHLVRYWISAFPAEFDLNPE [RASGRP2 70-95]”, for which, in data set [1] (concentration not given), the solubility in saline result is “insoluble in saline”. Still for that read-out and setting: as for “SNSLQVKTCHLVRYWISAFPAEFDLNPELA [RASGRP2 68-97]”, the entry is “insoluble in saline”. Take “TAQTRALFEKVQPTH [TSTA3-1 (51-65), TAQTRALFEKVQPTH]”: in data set [1] (at a concentration of 10 mg/ml), the solubility in saline result is “soluble in saline”. Turning to “biotinylated RASGRP2 (74-91): RASGRP2 (74-91) (SEQ ID NO: 2) coupled to a Biotin-PEG linker (Maleimide-PEG2-Biotin) (KTCHLVRYWISAFPAEFD; also: coupled to Maleimide-PEG2-Biotin linker, site not given here; listed as Homo sapiens)”, the “proliferative response (3H-thymidine incorporation)” value in data set [2] is recorded as “positive proliferative response”.
